Assay results: paper PMC9927415, “Tyrosine Kinase Inhibitors Display Potent Activity against Cryptosporidium parvum” (Microbiology Spectrum, 2022)

Experiments:
Experiment in all cases: KINOMEscan competitive binding, whole panel
panel of 203 kinases [1] = biological target: T1, panel of 203 kinases (Homo sapiens, UniProt O14976); conditions: 10 µM, n=1; kinase GAK; read-out: Percent inhibition GAK
T1 construct: purchased DiscoverX (KINOMEscan)
T1 sequence (O14976 1-1311): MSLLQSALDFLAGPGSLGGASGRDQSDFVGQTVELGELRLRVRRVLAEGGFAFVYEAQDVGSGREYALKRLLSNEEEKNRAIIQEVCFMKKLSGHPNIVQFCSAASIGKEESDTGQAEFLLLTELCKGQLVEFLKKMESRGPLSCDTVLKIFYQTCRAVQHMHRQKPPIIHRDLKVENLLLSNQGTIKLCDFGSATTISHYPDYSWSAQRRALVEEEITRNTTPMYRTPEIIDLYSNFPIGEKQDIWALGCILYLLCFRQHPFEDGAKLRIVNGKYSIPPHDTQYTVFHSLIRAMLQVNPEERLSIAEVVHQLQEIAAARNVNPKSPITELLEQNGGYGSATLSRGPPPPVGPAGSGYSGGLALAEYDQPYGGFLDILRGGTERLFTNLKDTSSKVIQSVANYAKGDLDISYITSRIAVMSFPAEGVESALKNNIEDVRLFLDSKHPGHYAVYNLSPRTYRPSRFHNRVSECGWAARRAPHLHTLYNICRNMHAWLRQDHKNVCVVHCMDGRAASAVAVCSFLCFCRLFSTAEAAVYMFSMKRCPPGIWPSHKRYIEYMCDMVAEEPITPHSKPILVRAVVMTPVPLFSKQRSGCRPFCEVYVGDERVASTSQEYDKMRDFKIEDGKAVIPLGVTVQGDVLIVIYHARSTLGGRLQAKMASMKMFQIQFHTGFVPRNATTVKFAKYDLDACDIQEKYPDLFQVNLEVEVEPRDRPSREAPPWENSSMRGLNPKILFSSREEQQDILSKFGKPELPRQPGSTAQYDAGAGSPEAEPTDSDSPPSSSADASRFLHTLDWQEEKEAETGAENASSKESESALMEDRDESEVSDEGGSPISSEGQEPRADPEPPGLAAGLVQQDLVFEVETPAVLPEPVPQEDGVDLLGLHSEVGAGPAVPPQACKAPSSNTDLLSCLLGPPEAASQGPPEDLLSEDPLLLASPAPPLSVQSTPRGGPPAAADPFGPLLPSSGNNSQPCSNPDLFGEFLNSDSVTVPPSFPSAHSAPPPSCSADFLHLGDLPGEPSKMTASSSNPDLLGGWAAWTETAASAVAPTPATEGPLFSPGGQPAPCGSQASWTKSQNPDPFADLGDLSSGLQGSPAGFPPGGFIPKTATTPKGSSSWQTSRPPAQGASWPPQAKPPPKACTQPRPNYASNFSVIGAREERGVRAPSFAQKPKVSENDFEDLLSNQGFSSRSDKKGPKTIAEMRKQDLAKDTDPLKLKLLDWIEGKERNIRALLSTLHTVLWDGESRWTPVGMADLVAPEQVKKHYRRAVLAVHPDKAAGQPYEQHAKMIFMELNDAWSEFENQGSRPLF
Outline: (§1)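 Kinases were expressed as T7 bacteriophage fusions, and test compounds competed with immobilized ATP-site probe ligands for binding. Kinase remaining bound to the solid-support probe was quantified, and values are given as percentage inhibition.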

panel of 203 kinases [2] = biological target: T2, panel of 203 kinases (Homo sapiens, UniProt P04626); conditions: 10 µM, n=1; kinase ERBB2; read-out: Percent inhibition ERBB2
T2 construct: purchased DiscoverX (KINOMEscan)
Outline: as §1

panel of 203 kinases [3] = biological target: T3, panel of 203 kinases (Homo sapiens, UniProt P14616); conditions: 10 µM, n=1; kinase INSRR; read-out: Percent inhibition INSRR
T3 construct: purchased DiscoverX (KINOMEscan)
Outline: as §1

panel of 203 kinases [4] = biological target: T4, panel of 203 kinases (Homo sapiens, UniProt P19784); conditions: 10 µM, n=1; kinase CSNK2A2; read-out: Percent inhibition CSNK2A2
T4 construct: purchased DiscoverX (KINOMEscan)
Outline: as §1

panel of 203 kinases [5] = biological target: T5, panel of 203 kinases (Homo sapiens, UniProt Q8TD19); conditions: 10 µM, n=1; kinase NEK9; read-out: Percent inhibition NEK9
T5 construct: purchased DiscoverX (KINOMEscan)
T5 sequence (Q8TD19 1-979): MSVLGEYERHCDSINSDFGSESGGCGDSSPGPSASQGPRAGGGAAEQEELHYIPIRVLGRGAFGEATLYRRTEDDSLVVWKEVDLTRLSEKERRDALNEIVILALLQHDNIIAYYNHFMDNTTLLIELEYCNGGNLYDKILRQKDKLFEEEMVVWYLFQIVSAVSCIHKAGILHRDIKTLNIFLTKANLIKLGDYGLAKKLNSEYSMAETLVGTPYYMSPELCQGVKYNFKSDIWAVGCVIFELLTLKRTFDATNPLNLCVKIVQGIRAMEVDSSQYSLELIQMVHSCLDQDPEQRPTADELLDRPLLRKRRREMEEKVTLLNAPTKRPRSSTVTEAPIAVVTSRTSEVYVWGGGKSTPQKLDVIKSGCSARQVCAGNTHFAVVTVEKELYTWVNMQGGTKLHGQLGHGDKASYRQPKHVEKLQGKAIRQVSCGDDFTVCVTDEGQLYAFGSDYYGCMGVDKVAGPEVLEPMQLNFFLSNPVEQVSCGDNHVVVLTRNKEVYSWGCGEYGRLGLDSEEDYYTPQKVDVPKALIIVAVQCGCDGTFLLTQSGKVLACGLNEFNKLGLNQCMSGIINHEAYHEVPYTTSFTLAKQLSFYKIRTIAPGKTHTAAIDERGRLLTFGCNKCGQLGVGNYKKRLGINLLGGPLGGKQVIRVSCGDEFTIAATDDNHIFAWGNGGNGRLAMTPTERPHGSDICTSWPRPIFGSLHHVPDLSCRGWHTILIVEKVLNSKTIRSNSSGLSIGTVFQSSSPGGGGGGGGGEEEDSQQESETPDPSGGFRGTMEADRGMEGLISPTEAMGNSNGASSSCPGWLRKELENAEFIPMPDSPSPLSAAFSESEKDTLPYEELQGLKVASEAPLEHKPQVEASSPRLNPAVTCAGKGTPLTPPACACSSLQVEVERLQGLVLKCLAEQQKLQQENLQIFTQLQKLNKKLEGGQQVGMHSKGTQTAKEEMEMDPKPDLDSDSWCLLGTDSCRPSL
Outline: as §1

panel of 203 kinases [6] = biological target: T6, panel of 203 kinases (Homo sapiens, UniProt Q9UIK4); conditions: 10 µM, n=1; kinase DAPK2; read-out: Percent inhibition DAPK2
T6 construct: purchased DiscoverX (KINOMEscan)
Outline: as §1

| Structure (SMILES) | inhibition at 10 µM (panel of 203 kinases [1]) | inhibition at 10 µM (panel of 203 kinases [2]) | inhibition at 10 µM (panel of 203 kinases [3]) | inhibition at 10 µM (panel of 203 kinases [4]) | inhibition at 10 µM (panel of 203 kinases [5]) | inhibition at 10 µM (panel of 203 kinases [6]) |
| --- | --- | --- | --- | --- | --- | --- |
| CN1CCN(c2ccc(Nc3nccc(-c4cnn5ncccc45)n3)cc2C#N)CC1 [Compound 1] | 97.9% | 0% | 99.2% | 96.3% | 99.2% | 92.2% |
| COc1ccc(Nc2nccc(-c3cnn4ncccc34)n2)cc1 [Compound 2] | 99.9% | 0% | 87.2% | 74.2% | 100% | 0% |
| Cc1ccc(O)cc1Nc1ccnc(Nc2cccc(C(N)=O)c2)n1 [Compound 3] | 99.8% | 0% | 0% | 0% | 0% | 0% |
| Cc1ccc(O)cc1N(C)c1ccnc(Nc2cccc(S(N)(=O)=O)c2)n1 [Compound 4] | 99.6% | 0% | 0% | 0% | 0% | 0% |
| Fc1cccc(COc2ccc(Nc3ncnc4c3CN(CCN3CCOCC3)CC4)cc2Cl)c1 [Compound 6] | 0% | 86.5% | 0% | 0% | 0% | 0% |
| COc1cc(Nc2nccc(-c3sc(N)nc3-c3cccc(NC(=O)c4c(F)cccc4F)c3)n2)cc(OC)c1OC [Compound 7] | 100% | 100% | 97.8% | 0% | 88.9% | 0% |
| C[C@@H](Oc1cc(-c2cnc3ccccn23)sc1C(N)=O)c1ccccc1Cl [Compound 8] | 97.2% | 0% | 0% | 95.2% | 94.7% | 88.3% |
| c1ccc(COc2cccc(-c3ccnc4[nH]ccc34)c2)cc1 [Compound 9] | 0% | 0% | 0% | 0% | 0% | 0% |
| Clc1ccc(Nc2ncc(-c3ccccc3)s2)cc1 [Compound 10] | 0% | 0% | 0% | 0% | 0% | 0% |
| Nc1ncc2c(-c3ccncc3)c[nH]c2n1 [Compound 11] | 97.2% | 0% | 0% | 0% | 0% | 0% |
